Measured values as given in the supplement of paper PMC10307832.

What was measured:
Experiment in all cases: relative viability (nuclei count vs DMSO), 5 days (fraction); higher = more cells survive
Gemcitabine + Luminespib = compound: Nc1ccn([C@@H]2O[C@H](CO)[C@@H](O)C2(F)F)c(=O)n1 [Gemcitabine] + CCNC(=O)c1noc(-c2cc(C(C)C)c(O)cc2O)c1-c1ccc(CN2CCOCC2)cc1 [Luminespib] (partner 0.01 µM)
How it was run: (§1)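 Values are medians from duplicate plates. Each reflects relative viability, defined as the nuclei count of treated wells over that of vehicle wells. Lung cancer cell lines in 1536-well plates were pin-tool dosed one day after seeding with one drug alone or with a fixed anchor-drug dose plus five library-drug doses (not always all listed) in √10 steps, then fixed, stained and imaged at 4× after 5 days.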

Gemcitabine + Linsitinib = compound: Nc1ccn([C@@H]2O[C@H](CO)[C@@H](O)C2(F)F)c(=O)n1 [Gemcitabine] + C[C@]1(O)C[C@@H](c2nc(-c3ccc4ccc(-c5ccccc5)nc4c3)c3c(N)nccn32)C1 [Linsitinib] (partner 1 µM)
How it was run: as §1

Gemcitabine + OSI-027 = compound: Nc1ccn([C@@H]2O[C@H](CO)[C@@H](O)C2(F)F)c(=O)n1 [Gemcitabine] + COc1cccc2cc(-c3nc([C@H]4CC[C@H](C(=O)O)CC4)n4ncnc(N)c34)[nH]c12 [OSI-027] (partner 0.5 µM)
How it was run: as §1

Gemcitabine + Lapatinib = compound: Nc1ccn([C@@H]2O[C@H](CO)[C@@H](O)C2(F)F)c(=O)n1 [Gemcitabine] + CS(=O)(=O)CCNCc1ccc(-c2ccc3ncnc(Nc4ccc(OCc5cccc(F)c5)c(Cl)c4)c3c2)o1 [Lapatinib] (partner 2 µM)
How it was run: as §1

Cell Line | relative viability (Gemcitabine + Luminespib; first compound 0.001 µM) | relative viability (Gemcitabine + Luminespib; first compound 0.003162 µM) | relative viability (Gemcitabine + Luminespib; first compound 0.01 µM) | relative viability (Gemcitabine + Luminespib; first compound 0.03162 µM) | relative viability (Gemcitabine + Luminespib; first compound 0.1 µM) | relative viability (Gemcitabine + Linsitinib; first compound 0.001 µM) | relative viability (Gemcitabine + Linsitinib; first compound 0.003162 µM) | relative viability (Gemcitabine + Linsitinib; first compound 0.01 µM) | relative viability (Gemcitabine + Linsitinib; first compound 0.03162 µM) | relative viability (Gemcitabine + Linsitinib; first compound 0.1 µM) | relative viability (Gemcitabine + OSI-027; first compound 0.001 µM) | relative viability (Gemcitabine + OSI-027; first compound 0.003162 µM) | relative viability (Gemcitabine + OSI-027; first compound 0.01 µM) | relative viability (Gemcitabine + OSI-027; first compound 0.03162 µM) | relative viability (Gemcitabine + OSI-027; first compound 0.1 µM) | relative viability (Gemcitabine + Lapatinib; first compound 0.001 µM) | relative viability (Gemcitabine + Lapatinib; first compound 0.003162 µM) | relative viability (Gemcitabine + Lapatinib; first compound 0.01 µM) | relative viability (Gemcitabine + Lapatinib; first compound 0.03162 µM) | relative viability (Gemcitabine + Lapatinib; first compound 0.1 µM)
H3255 | 0.899 | 0.752 | 0.707 | 0.271 | 0.248 | 0.954 | 0.644 | 0.762 | 0.233 | 0.145 | 0.353 | 0.366 | 0.394 | 0.26 | 0.248 | 0.223 | 0.235 | 0.221 | 0.138 | 0.159
EPLC-272H | 0.145 | 0.323 | 0.337 | 0.16 | 0.135 | 1.21 | 1.18 | 0.883 | 0.673 | 0.0949 | 0.334 | 0.298 | 0.159 | 0.136 | 0.105 | 1.08 | 0.257 | 0.664 | 0.19 | 0.0848
PC-3 [JPC-3] | 0.79 | 0.685 | 0.415 | 0.349 | 0.314 | 1.03 | 0.77 | 0.692 | 0.342 | 0.309 | 0.799 | 0.656 | 0.378 | 0.259 | 0.257 | 0.468 | 0.416 | 0.424 | 0.278 | 0.266
NCI-H1793 | 0.17 | 0.179 | 0.15 | 0.125 | 0.137 | 1 | 0.857 | 0.539 | 0.16 | 0.135 | 0.236 | 0.286 | 0.205 | 0.159 | 0.116 | 1.07 | 0.734 | 0.489 | 0.244 | 0.166
EKVX | 1.06 | 0.727 | 0.456 | 0.182 | 0.115 | 1.07 | 0.727 | 0.541 | 0.188 | 0.118 | 0.773 | 0.719 | 0.391 | 0.147 | 0.122 | 0.238 | 0.354 | 0.111 | 0.116 | 0.12
ChaGo-K-1 | 0.603 | 0.474 | 0.259 | 0.183 | 0.186 | – | – | – | – | – | 0.516 | 0.458 | 0.212 | 0.185 | 0.164 | – | – | – | – | –
NCI-H23 | 0.214 | 0.212 | 0.192 | 0.175 | 0.217 | 0.447 | 0.226 | 0.123 | 0.11 | 0.118 | 0.544 | 0.272 | 0.127 | 0.151 | 0.108 | 0.794 | 0.601 | 0.14 | 0.159 | 0.109
EMC-BAC-2 | 1.29 | 1.17 | 1.04 | 0.222 | 0.194 | 0.797 | 0.822 | 0.751 | 0.191 | 0.154 | 0.422 | 0.423 | 0.212 | 0.214 | 0.223 | 0.923 | 0.979 | 0.86 | 0.198 | 0.159
LOU-NH91 | 0.322 | 0.322 | 0.339 | 0.182 | 0.24 | 0.922 | 0.686 | 0.547 | 0.311 | 0.281 | 0.709 | 0.616 | 0.45 | 0.252 | 0.215 | 0.733 | 0.72 | 0.479 | 0.267 | 0.276
LU99A | 0.238 | 0.306 | 0.233 | 0.232 | 0.266 | 0.601 | 0.597 | 0.487 | 0.576 | 0.554 | 0.275 | 0.348 | 0.307 | 0.304 | 0.286 | 1.15 | 1.16 | 0.932 | 0.974 | 1
NCI-H1395 | 0.739 | 0.607 | 0.391 | 0.361 | 0.343 | 1.02 | 0.814 | 0.565 | 0.407 | 0.334 | 0.705 | 0.493 | 0.391 | 0.313 | 0.303 | 1.02 | 0.725 | 0.448 | 0.32 | 0.33
NCI-H460 | 0.0273 | 0.0507 | 0.0367 | 0.0148 | 0.014 | 0.714 | 0.878 | 0.0967 | 0.0138 | 0.0057 | 0.838 | 0.76 | 0.26 | 0.0217 | 0.0185 | 1.05 | 1.11 | 0.278 | 0.0125 | 0.009
201T | 1.04 | 1.03 | 1.04 | 0.681 | 0.278 | 1.07 | 1.06 | 1.06 | 0.663 | 0.339 | 0.653 | 0.747 | 0.122 | 0.146 | 0.114 | 0.981 | 1.04 | 1.03 | 0.942 | 0.537
NCI-H1944 | 0.73 | 0.764 | 0.758 | 0.458 | 0.183 | 1.24 | 1.15 | 1.17 | 0.509 | 0.259 | 0.453 | 0.437 | 0.385 | 0.188 | 0.149 | 0.848 | 0.847 | 0.804 | 0.45 | 0.24
NCI-H2405 | 0.73 | 0.746 | 0.587 | 0.207 | 0.216 | 0.965 | 0.651 | 0.393 | 0.237 | 0.182 | 0.641 | 0.314 | 0.32 | 0.211 | 0.196 | 1.03 | 0.445 | 0.362 | 0.243 | 0.162
NCI-H1703 | – | – | – | – | – | 0.774 | 0.228 | 0.103 | 0.101 | 0.132 | – | – | – | – | – | 0.898 | 0.262 | 0.156 | 0.164 | 0.114
NCI-H1755 | 0.451 | 0.505 | 0.491 | 0.346 | 0.26 | 0.957 | 1.06 | 0.975 | 0.347 | 0.259 | 0.789 | 0.715 | 0.57 | 0.34 | 0.272 | 0.962 | 1.04 | 0.959 | 0.35 | 0.265
